Tests used:
NIH/3T3 BTK C481S cells = experiment: Phosphor-BTK(Y223) assay, adherent cells; type: cell-based; details: Mus musculus, NIH3T3, phosphorylated BTK Y223, NIH/3T3 BTK C481S cells; read-out: NIH/3T3 BTK-C481S pBTK
Outline: (§1)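 NIH/3T3 cells expressing WT or C481S BTK were pretreated with compound for 0.5 h at 37 °C, then stimulated with 1 mM Na3VO4 (final) for 2 h. Lysates were assayed by HTRF for p-BTK Y223 using the 665/620 nm ratio. IC50 was obtained by nonlinear fit of % inhibition versus 0.5% DMSO control.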

NIH/3T3 BTK WT cells = experiment: Phosphor-BTK(Y223) assay, adherent cells; type: cell-based; details: Mus musculus, NIH3T3, phosphorylated BTK Y223, NIH/3T3 BTK WT cells; read-out: NIH/3T3 BTK-WT pBTK
Outline: as §1

BTK kinase = molecular target: T1, BTK kinase (Homo sapiens, UniProt Q06187); experiment: Kinase activity inhibition assay (HTRF TK Kit); type: biochemical
T1 construct: purchased Invitrogen PV3587
T1 sequence (Q06187 whole entry): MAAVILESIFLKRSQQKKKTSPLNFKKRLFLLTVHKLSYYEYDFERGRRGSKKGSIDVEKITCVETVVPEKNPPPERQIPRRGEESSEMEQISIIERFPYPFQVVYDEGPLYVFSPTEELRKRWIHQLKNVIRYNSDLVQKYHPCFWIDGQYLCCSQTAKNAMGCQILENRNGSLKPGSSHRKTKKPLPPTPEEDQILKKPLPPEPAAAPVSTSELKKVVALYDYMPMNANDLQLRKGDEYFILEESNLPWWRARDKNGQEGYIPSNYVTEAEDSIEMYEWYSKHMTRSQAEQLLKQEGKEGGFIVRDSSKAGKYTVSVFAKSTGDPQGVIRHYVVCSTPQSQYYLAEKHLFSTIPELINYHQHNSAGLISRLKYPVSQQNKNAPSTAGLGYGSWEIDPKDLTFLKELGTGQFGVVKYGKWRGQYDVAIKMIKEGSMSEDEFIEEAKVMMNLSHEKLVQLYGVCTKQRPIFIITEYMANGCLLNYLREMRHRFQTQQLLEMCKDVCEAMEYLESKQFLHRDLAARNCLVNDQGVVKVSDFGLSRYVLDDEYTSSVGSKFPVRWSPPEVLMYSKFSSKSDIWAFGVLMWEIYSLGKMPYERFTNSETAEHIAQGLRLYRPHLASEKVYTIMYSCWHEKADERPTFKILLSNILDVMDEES
Description: (§2) In this assay, the HTRF TK Kit (Catalog No. 62TK0PEC) provided by Cisbio was used to detect the inhibitory activity of compounds on BTK kinase, BTK T474I kinase and BTK C481 S kinase and the selectivity of compounds relative to EGFR, ITK and TEC kinases.
(§3) Reagents and consumables: BTK kinase (Invitrogen, Catalog No. PV3587), BTK C481S (Carna, Product No. 08-547), BTK T474I(SignalChem Product No. B10-12HH), ITK (Cama, Product No. 08-181), EGFR (Cama, Product No. 08-115), TEC (Carna, Product No. 08-182), HTRF-TK kit (Cisbio, Product No. 62TK0PEC), MgCl2 (Sigma, Product No. M1028), MnCl2 (Sigma, Product No. M1787), DTT (Sigma, Product No. D0632), ATP (Sigma, Product No. A7699-1g), DMSO (Sigma, Product No. D2650), 384-well plate (PE, Product No. 6008280).
(§4) The entire operation steps were carried out on ice, and the total reaction volume was 10µL. A compound (4µL), substrate and ATP (4µL), and kinase (2µL) were added in sequence to a 384-well plate, and the plate was shaken for 30 seconds. The mixture was reacted at room temperature for an appropriate time, and then the detection reagent was added. The resulting mixture was reacted at room temperature for 1 hour, and then the plate was assayed with a microplate reader. The specific steps were as follows: • a) a 1 × kinase buffer solution required for the kinase assay was calculated according to the amount of the test compound, and prepared as needed; • b) 2.5 × working concentration of a compound was prepared, 100-fold gradient concentration solutions of a compound were diluted by 40 × to the desired concentration, respectively, mixed well, and added to each well at 4 µL per well; • c) 5 × working concentration of the substrate and ATP were prepared, mixed in a ratio of 1:1 before being added to the 384-well plate, and added to each well at 4 µL per well; • d) 5 × working concentration of a kinase was prepared, 2 µL of which was added to each well; • e) the plate was shaken on a microplate shaker for 30 seconds, sealed with a sealing membrane, and the mixture was reacted at room temperature for an appropriate time; • f) 4 × working concentration of streptavidin XL-665 and TK antibody-cryptate compound were prepared, mixed in a ratio of 1:1 before being added to the 384-well plate, and added to each well at 10 µL per well; • g) the mixture was reacted at room temperature for 1 hour, and then the plate was read; • h) the wells with only substrate, ATP and 1% DMSO added but no kinase were blank control wells, and the wells with only substrate, ATP, 1% DMSO and kinase were positive control wells.
(§5) Readings: The values of 620 nm (cryptate) and 665 nm (XL665) were read with a BioTek Synerg Neo2 microplate reader, the ratio of 665/620 for each well was calculated, and the data were exported.
(§6) Data analysis: IC50 was calculated using GraphPad Prism 7.0 software.
(§7) The IC50 (half-maximal inhibitory concentration) of the compound was obtained using the following nonlinear fitting formula: Y = Bottom + (Top−Bottom)/(1+10^(∧)((LogIC50−X)*HillSlope)) [formula] • X: Log value of the compound concentration • Y: Inhibition rate (% inhibition) • Top: Maximum response • Bottom: Baseline response • HillSlope: Slope of the curve
(§8) The formula for calculating kinase inhibition rate (inhibition rate %) was: [formula]

BTK C481S = molecular target: T2, BTK C481S (Homo sapiens, UniProt Q06187, C481S); experiment: Kinase activity inhibition assay (HTRF TK Kit); type: biochemical
T2 construct: purchased Carna 08-547
T2 sequence (Q06187 whole entry C481S): as the sequence (Q06187 whole entry) above, with C481S counted along it
Description: as §2, §3, §4, §5, §6, §7, §8

BTK T474I = molecular target: T3, BTK T474I (Homo sapiens, UniProt Q06187, T474I); experiment: Kinase activity inhibition assay (HTRF TK Kit); type: biochemical
T3 construct: purchased SignalChem B10-12HH
T3 sequence (Q06187 whole entry T474I): as the sequence (Q06187 whole entry) above, with T474I counted along it
Description: as §2, §3, §4, §5, §6, §7, §8

SMILES	IC50 (BTK kinase) [nM]	IC50 (BTK C481S) [nM]	IC50 (BTK T474I) [nM]	IC50 (NIH/3T3 BTK C481S cells) [nM]	IC50 (NIH/3T3 BTK WT cells) [nM]
COc1ccc(F)cc1C(=O)NCc1ccc(-c2ncc(-c3cnccn3)c3[nH]nc(N)c23)cc1 [Example 18, N-(4-(3-amino-7-(pyrazin-2-yl)-1H-pyrazolo[4,3-c]pyridin-4-yl)benzyl)-5-fluoro-2-methoxybenzamide]	5 to 50	1 to 5	50 to 500	10 to 50	≤ 5
COc1ccc(F)cc1C(=O)NCc1ccc(-c2ncc(-c3cnn(C)c3)c3[nH]nc(N)c23)cc1 [Example 22, N-(4-(3-amino-7-(1-methyl-1H-pyrazol-4-yl)-1H-pyrazolo[4,3-c]pyridin-4-yl)benzyl)-5-fluoro-2-oxybenzamide]	5 to 50	5 to 50	50 to 500	> 50	> 50
COc1ccc(F)cc1C(=O)NCc1ccc(-c2ncc(-c3ccn(CC(=O)N(C)C)n3)c3[nH]nc(N)c23)cc1 [Example 25, N-(4-(3-amino-7-(1-(2-(dimethylamino)-2-oxoethyl)-1H-pyrazol-3-yl)-1H-pyrazolo[4,3-c]pyridin-4-yl)benzyl)-5-fluoro-2-methoxybenzamide]	1 to 5	1 to 5	50 to 500	10 to 50	10 to 50
CNC(=O)Cn1ccc(-c2cnc(-c3ccc(CNC(=O)c4cc(F)ccc4OC)cc3)c3c(N)n[nH]c23)n1 [Example 26, N-(4-(3-amino-7-(1-(2-(methylamino)-2-oxoethyl)-1H-pyrazol-3-yl)-1H-pyrazolo[4,3-c]pyridin-4-yl)benzyl)-5-fluoro-2-methoxybenzamide]	1 to 5	1 to 5	50 to 500	10 to 50	10 to 50
COc1ccc(F)cc1C(=O)NCc1ccc(-c2ncc(-c3ccn(CC(F)(F)F)n3)c3[nH]nc(N)c23)cc1 [Example 28, N-(4-(3-amino-7-(1-(2,2,2-trifluoroethyl)-1H-pyrazol-3-yl)-1H-pyrazolo[4,3-c]pyridin-4-yl)benzyl)-5-fluoro-2-methoxybenzamide]	1 to 5	1 to 5	50 to 500	10 to 50	≤ 5
COc1ccc(F)cc1C(=O)NCc1ccc(-c2ncc(-c3cn(C)cn3)c3[nH]nc(N)c23)cc1 [Example 30, N-(4-(3-amino-7-(1-methyl-1H-imidazol-4-yl)-1H-pyrazolo[4,3-c]pyridin-4-yl)benzyl)-5-fluoro-2-methoxybenzamide]	1 to 5	1 to 5	50 to 500	5 to 10	≤ 5
COc1ccc(F)cc1C(=O)NCc1ccc(-c2ncc(-c3cc[nH]n3)c3[nH]nc(N)c23)cc1 [Example 31, N-(4-(3-amino-7-(1H-pyrazol-3-yl)-1H-pyrazolo[4,3-c]pyridin-4-yl)benzyl)-5-fluoro-2-methoxybenzamide]	1 to 5	1 to 5	50 to 500	10 to 50	5 to 10
COc1ccc(F)cc1C(=O)NCc1ccc(-c2ncc(-c3ncc(F)cn3)c3[nH]nc(N)c23)cc1 [Example 36, N-(4-(3-amino-7-(5-fluoropyrimidin-2-yl)-1H-pyrazolo[4,3-c]pyridin-4-yl)benzyl)-5-fluoro-2-methoxybenzamide]	1 to 5	1 to 5	50 to 500	5 to 10	5 to 10

Second part, led by results:

IC50 (BTK kinase) [nM]	IC50 (BTK C481S) [nM]	IC50 (BTK T474I) [nM]	SMILES	IC50 (NIH/3T3 BTK C481S cells) [nM]	IC50 (NIH/3T3 BTK WT cells) [nM]
1 to 5	1 to 5	50 to 500	COc1ccc(F)cc1C(=O)NCc1ccc(-c2ncc(-c3ccncn3)c3[nH]nc(N)c23)cc1 [Example 19]	5 to 10	≤ 5
1 to 5	5 to 50	50 to 500	COc1ccc(F)cc1C(=O)NCc1ccc(-c2ncc(-c3ccc(F)cn3)c3[nH]nc(N)c23)cc1 [Example 21, N-(4-(3-amino-7-(5-fluoropyridin-2-yl)-1H-pyrazolo[4,3-c]pyridin-4-yl)benzyl)-5-fluoro-2-methoxybenzamide]	≤ 5	≤ 5
≤ 1	≤ 1	50 to 500	COc1ccc(F)cc1C(=O)NCc1ccc(-c2ncc(-c3ccn(C)n3)c3[nH]nc(N)c23)cc1 [Example 23, N-(4-(3-amino-7-(1-methyl-1H-pyrazol-3-yl)-1H-pyrazolo[4,3-c]pyridin-4-yl)benzyl)-5-fluoro-2-methoxybenzamide]	≤ 5	≤ 5
5 to 50	5 to 50	50 to 500	COc1ccc(F)cc1C(=O)NCc1ccc(-c2ncc(-c3ccc(C(F)(F)F)cn3)c3[nH]nc(N)c23)cc1 [Example 24, N-(4-(3-amino-7-(5-(trifluoromethyl)pyridin-2-yl)-1H-pyrazolo[4,3-c]pyridin-4-yl)benzyl)-5-fluoro-2-methoxybenzamide]	≤ 5	≤ 5
≤ 1	≤ 1	5 to 50	COc1ccc(F)cc1C(=O)NCc1ccc(-c2ncc(-c3ccc(S(C)(=O)=O)cn3)c3[nH]nc(N)c23)cc1 [Example 35, N-(4-(3-amino-7-(5-(methylsulfonyl)pyridin-2-yl)-1H-pyrazolo[4,3-c]pyridin-4-yl)benzyl)-5-fluoro-2-methoxybenzamide]	≤ 5	≤ 5
≤ 1	≤ 1	50 to 500	COc1ccc(F)cc1C(=O)NCc1ccc(-c2ncc(-c3ccc(C)cn3)c3[nH]nc(N)c23)cc1 [Example 37, N-(4-(3-amino-7-(5-methylpyridin-2-yl)-1H-pyrazolo[4,3-c]pyridin-4-yl)benzyl)-5-fluoro-2-methoxybenzamide]	≤ 5	≤ 5
5 to 50	1 to 5	50 to 500	COc1ccc(F)cc1C(=O)NCc1ccc(-c2ncc(-c3ccc(Cl)cn3)c3[nH]nc(N)c23)cc1 [Example 38, N-(4-(3-amino-7-(5-chloropyridin-2-yl)-1H-pyrazolo[4,3-c]pyridin-4-yl)benzyl)-5-fluoro-2-methoxybenzamide]	≤ 5	≤ 5
≤ 1	≤ 1	5 to 50	COc1ccc(F)cc1C(=O)NCc1ccc(-c2ncc(-c3ncc(C)cn3)c3[nH]nc(N)c23)cc1 [Example 39, N-(4-(3-amino-7-(5-methylpyrimidin-2-yl)-1H-pyrazolo[4,3-c]pyridin-4-yl)benzyl)-5-fluoro-2-methoxybenzamide]	≤ 5	≤ 5
1 to 5	≤ 1	5 to 50	COc1ccc(F)cc1C(=O)NCc1ccc(-c2ncc(-c3ccc(OC(F)(F)F)cn3)c3[nH]nc(N)c23)cc1 [Example 41, N-(4-(3-amino-7-(5-(trifluoromethoxy)pyridin-2-yl)-1H-pyrazolo[4,3-c]pyridin-4-yl)benzyl)-5-fluoro-2-methoxybenzamide]	5 to 10	≤ 5
